Measured values from patent US12655125B2 (SIRONAX LTD., priority 2020, dated 2026).
Read-outs that look alike come from different tables or passages of the source.

Test system: HT-29 cells
Assay: HT29 Cells 0FBS Assay In Vitro (TNF-α/SMAC mimetic/zVAD-FMK induced necroptosis, CellTiter-Glo cell viability)
Type: cell-based
Conditions: Homo sapiens, HT-29 cells, FBS free medium, TNF-α (10 ng/ml), SMAC mimetic (6 uM), zVAD-FMK (10 μM), 20 hours, geometric mean EC50
In short: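 HT-29 cells (5,000/well, seeded overnight) in serum-free McCoy's 5A were stimulated with TNF-α 10 ng/ml, SMAC mimetic 6 μM and zVAD-FMK 10 μM to induce necroptosis. Compound added as 10-point 3-fold series for 20 h at 37° C. CellTiter-Glo luminescence gives viability; EC50 is geometric mean of duplicate dose-responses.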

[1] = read-out: Cell activity (EC50) of Compounds 117-281
[2] = read-out: Cell activity (EC50) of Compounds 1-116

Compound | EC50 [1] | EC50 [2]
Cc1nn(-c2cc(OC3CN(C(=O)N4N=CC[C@H]4c4cc(F)cc(F)c4)C3)c(F)cn2)c(C)c1S(=O)(=O)Nc1ccccc1 [compound 243, (S)-1-(4-((1-(5-(3,5-difluorophenyl)-4,5-dihydro-1H-pyrazole-1-carbonyl)azetidin-3-yl)oxy)-5-fluoropyridin-2-yl)-3,5-dimethyl-N-phenyl-1H-pyrazole-4-sulfonamide] | 0.1 to 100 nM | 
Cc1nc(C)n(-c2cc(OC3CN(C(=O)N4N=CC[C@H]4c4cc(F)cc(F)c4)C3)c(F)cn2)c1C [compound 152, (S)-(5-(3,5-difluorophenyl)-4,5-dihydro-1H-pyrazol-1-yl)(3-((5-fluoro-2-(2,4,5-trimethyl-11H-imidazol-1-yl)pyridin-4-yl)oxy)azetidin-1-yl)methanone] | 0.1 to 100 nM | 
Cn1ncc(C(=O)N2CC(O)C2)c1-c1cc(OC2CN(C(=O)N3N=CC[C@H]3c3cc(F)cc(F)c3)C2)c(F)cn1 [compound 73, (S)-(5-(3,5-difluorophenyl)-4,5-dihydro-1H-pyrazol-1-yl)(3-((5-fluoro-2-(4-(3-hydroxyazetidine-1-carbonyl)-1-methyl-1H-pyrazol-5-yl)pyridin-4-yl)oxy)azetidin-1-yl)methanone] |  | 100 to 1000 nM
CC(O)c1cnn(C)c1-c1cc(OC2CN(C(=O)N3N=CC[C@H]3c3cc(F)cc(F)c3)C2)c(F)cn1 (stereo partly drawn) [compound 179, ((S)-5-(3,5-difluorophenyl)-4,5-dihydro-1H-pyrazol-1-yl)(3-((5-fluoro-2-(4-(1-hydroxyethyl)-1-methyl-1H-pyrazol-5-yl)pyridin-4-yl)oxy)azetidin-1-yl)methanone] | 100 to 1000 nM | 
NC(=O)Cn1ccc(-c2ncc(F)c(OC3CN(C(=O)N4N=CC[C@H]4c4cc(F)cc(F)c4)C3)n2)n1 [compound 89, (S)-2-(3-(4-((1-(5-(3,5-difluorophenyl)-4,5-dihydro-1H-pyrazole-1-carbonyl)azetidin-3-yl)oxy)-5-fluoropyrimidin-2-yl)-1H-pyrazol-1-yl)acetamide] |  | 100 to 1000 nM
Cn1ncc(Cl)c1-c1cc(OC2CN(C(=O)N3N=CC[C@H]3c3cc(F)cc(F)c3)C2)c(F)cn1 [compound 83, (S)-(3-((2-(4-chloro-1-methyl-1H-pyrazol-5-yl)-5-fluoropyridin-4-yl)oxy)azetidin-1-yl)(5-(3,5-difluorophenyl)-4,5-dihydro-1H-pyrazol-1-yl)methanone] |  | 0.1 to 100 nM
CSc1nn(C)c(-c2cc(OC3CN(C(=O)N4N=CC[C@H]4c4cc(F)cc(F)c4)C3)c(F)cn2)c1C [compound 176, (S)-(5-(3,5-difluorophenyl)-4,5-dihydro-1H-pyrazol-1-yl)(3-((2-(1,4-dimethyl-3-(methylthio)-1H-pyrazol-5-yl)-5-fluoropyridin-4-yl)oxy)azetidin-1-yl)methanone] | 0.1 to 100 nM | 
Cc1nn(-c2cc(OC3CN(C(=O)N4N=CC[C@H]4c4cc(F)cc(F)c4)C3)c(F)cn2)c(C)c1CC(=O)NCCO [compound 223, (S)-2-(1-(4-((1-(5-(3,5-difluorophenyl)-4,5-dihydro-1H-pyrazole-1-carbonyl)azetidin-3-yl)oxy)-5-fluoropyridin-2-yl)-3,5-dimethyl-1H-pyrazol-4-yl)-N-(2-hydroxyethyl)acetamide] | 0.1 to 100 nM | 
Cn1nccc1-c1ncc(F)c(OC2CN(C(=O)N3N=CC[C@H]3c3cc(F)cc(F)c3)C2)n1 [compound 2, (S)-(5-(3,5-difluorophenyl)-4,5-dihydro-1H-pyrazol-1-yl)(3-((5-fluoro-2-(1-methyl-1H-pyrazol-5-yl)pyrimidin-4-yl)oxy)azetidin-1-yl)methanone] |  | 0.1 to 100 nM
Cc1c(N(C)CC2CC2)nn(C)c1-c1cc(OC2CN(C(=O)N3N=CC[C@H]3c3cc(F)cc(F)c3)C2)c(F)cn1 [compound 164, (S)-(3-((2-(3-((cyclopropylmethyl)(methyl)amino)-1,4-dimethyl-1H-pyrazol-5-yl)-5-fluoropyridin-4-yl)oxy)azetidin-1-yl)(5-(3,5-difluorophenyl)-4,5-dihydro-1H-pyrazol-1-yl)methanone] | 0.1 to 100 nM | 
Cc1nnn(C)c1-c1cc(OC2CN(C(=O)N3N=CC[C@H]3c3cc(F)cc(F)c3)C2)c(F)cn1 [compound 47, (S)-(5-(3,5-difluorophenyl)-4,5-dihydro-1H-pyrazol-1-yl)(3-((2-(1,4-dimethyl-1H-1,2,3-triazol-5-yl)-5-fluoropyridin-4-yl)oxy)azetidin-1-yl)methanone] |  | 0.1 to 100 nM
Cc1nscc1-c1ncc(F)c(OC2CN(C(=O)N3N=CC[C@H]3c3cc(F)cc(F)c3)C2)n1 [compound 15, (S)-(5-(3,5-difluorophenyl)-4,5-dihydro-1H-pyrazol-1-yl)(3-((5-fluoro-2-(3-methylisothiazol-4-yl)pyrimidin-4-yl)oxy)azetidin-1-yl)methanone] |  | 0.1 to 100 nM
N#Cc1cccn1-c1ncc(F)c(OC2CN(C(=O)N3N=CC[C@H]3c3cc(F)cc(F)c3)C2)n1 [compound 106, (S)-1-(4-((1-(5-(3,5-difluorophenyl)-4,5-dihydro-1H-pyrazole-1-carbonyl)azetidin-3-yl)oxy)-5-fluoropyrimidin-2-yl)-1H-pyrrole-2-carbonitrile] |  | 0.1 to 100 nM
Cn1ncc(NCC(=O)N2CCOCC2)c1-c1cc(OC2CN(C(=O)N3N=CC[C@H]3c3cc(F)cc(F)c3)C2)c(F)cn1 [compound 62, (S)-2-((5-(4-((1-(5-(3,5-difluorophenyl)-4,5-dihydro-1H-pyrazole-1-carbonyl)azetidin-3-yl)oxy)-5-fluoropyridin-2-yl)-1-methyl-1H-pyrazol-4-yl)amino)-1-morpholinoethan-1-one] |  | 0.1 to 100 nM
Cc1nn(-c2cc(OC3CN(C(=O)N4N=CC[C@H]4c4cc(F)cc(F)c4)C3)c(F)cn2)c(C)c1S(C)(=O)=O [compound 190, (S)-(5-(3,5-difluorophenyl)-4,5-dihydro-1H-pyrazol-1-yl)(3-((2-(3,5-dimethyl-4-(methylsulfonyl)-1H-pyrazol-1-yl)-5-fluoropyridin-4-yl)oxy)azetidin-1-yl)methanone] | 0.1 to 100 nM | 
Cc1nn(-c2cc(OC3CN(C(=O)N4N=CC[C@H]4c4cc(F)cc(F)c4)C3)c(F)cn2)c(C)c1C(=O)N[C@H]1C[C@@H](O)C1 [compound 254, 1-(4-((1-((S)-5-(3,5-difluorophenyl)-4,5-dihydro-1H-pyrazole-1-carbonyl)azetidin-3-yl)oxy)-5-fluoropyridin-2-yl)-N-((1s,3s)-3-hydroxycyclobutyl)-3,5-dimethyl-1H-pyrazole-4-carboxamide] | 0.1 to 100 nM | 
Cc1nn(-c2cc(OC3CN(C(=O)N4N=CC[C@H]4c4cc(F)cc(F)c4)C3)c(F)cn2)c(C)c1S(=O)(=O)NC1CCOCC1 [compound 241, (S)-1-(4-((1-(5-(3,5-difluorophenyl)-4,5-dihydro-1H-pyrazole-1-carbonyl)azetidin-3-yl)oxy)-5-fluoropyridin-2-yl)-3,5-dimethyl-N-(tetrahydro-2H-pyran-4-yl)-1H-pyrazole-4-sulfonamide] | 0.1 to 100 nM | 
Cn1ncc(C(N)=O)c1-c1cc(OC2CN(C(=O)N3N=CC[C@H]3c3cc(F)cc(F)c3)C2)c(F)cn1 [compound 66, (S)-5-(4-((1-(5-(3,5-difluorophenyl)-4,5-dihydro-1H-pyrazole-1-carbonyl)azetidin-3-yl)oxy)-5-fluoropyridin-2-yl)-1-methyl-1H-pyrazole-4-carboxamide] |  | 0.1 to 100 nM
Cc1nn(-c2cc(OC3CN(C(=O)N4N=CC[C@H]4c4cc(F)cc(F)c4)C3)c(F)cn2)c(C)c1C(C)(C)C(=O)O [compound 279, (S)-2-(1-(4-((1-(5-(3,5-difluorophenyl)-4,5-dihydro-1H-pyrazole-1-carbonyl)azetidin-3-yl)oxy)-5-fluoropyridin-2-yl)-3,5-dimethyl-1H-pyrazol-4-yl)-2-methylpropanoic acid] | 100 to 1000 nM | 
CC(C)CNC(=O)c1cnn(C)c1-c1cc(OC2CN(C(=O)N3N=CC[C@H]3c3cc(F)cc(F)c3)C2)c(F)cn1 [compound 70, (S)-5-(4-((1-(5-(3,5-difluorophenyl)-4,5-dihydro-1H-pyrazole-1-carbonyl)azetidin-3-yl)oxy)-5-fluoropyridin-2-yl)-N-isobutyl-1-methyl-1H-pyrazole-4-carboxamide] |  | 0.1 to 100 nM
Cc1nn(-c2cc(OC3CN(C(=O)N4N=CC[C@H]4c4cc(F)cc(F)c4)C3)c(F)cn2)c(C)c1C#N [compound 151, (S)-1-(4-((1-(5-(3,5-difluorophenyl)-4,5-dihydro-1H-pyrazole-1-carbonyl)azetidin-3-yl)oxy)-5-fluoropyridin-2-yl)-3,5-dimethyl-1H-pyrazole-4-carbonitrile] | 0.1 to 100 nM | 
Cc1nn(-c2cc(OC3CN(C(=O)N4N=CC[C@H]4c4cc(F)cc(F)c4)C3)c(F)cn2)c(C)c1C(=O)NC#N [compound 253, (S)—N-cyano-1-(4-((1-(5-(3,5-difluorophenyl)-4,5-dihydro-1H-pyrazole-1-carbonyl)azetidin-3-yl)oxy)-5-fluoropyridin-2-yl)-3,5-dimethyl-1H-pyrazole-4-carboxamide] | 0.1 to 100 nM | 
Cn1ncc(C#N)c1-c1ncc(F)c(OC2CN(C(=O)N3N=CC[C@H]3c3cc(F)cc(F)c3)C2)n1 [compound 48, (S)-5-(4-((1-(5-(3,5-difluorophenyl)-4,5-dihydro-1H-pyrazole-1-carbonyl)azetidin-3-yl)oxy)-5-fluoropyrimidin-2-yl)-1-methyl-1H-pyrazole-4-carbonitrile] |  | 0.1 to 100 nM
Cc1n[nH]c(C)c1-c1ncc(F)c(OC2CN(C(=O)N3N=CC[C@H]3c3cc(F)cc(F)c3)C2)n1 [compound 91, (S)-(5-(3,5-difluorophenyl)-4,5-dihydro-1H-pyrazol-1-yl)(3-((2-(3,5-dimethyl-1H-pyrazol-4-yl)-5-fluoropyrimidin-4-yl)oxy)azetidin-1-yl)methanone] |  | 0.1 to 100 nM
